Assay [1] relates to HCT-8 (human colon adenocarcinoma) cells. In words: in vitro activity against human colon adenocarcinoma (HCT-8), cell count. It counts as cell-based. How it is done:
HCT-8 (human colon adenocarcinoma) cells are trypsinized using Trypsin-EDTA. A single cell suspension is achieved by passing the cells through a 26 gauge needle with a 20 cc syringe. A cell suspension is prepared using RPMI 1640 growth medium (available from Gibco Laboratories) +10% fetal calf serum +50 µg/ml garamycin with a cell concentration of approximately 30,000 cells/ml. The cell suspension is dispensed in Linbro 24-well plates; 1 ml/well. The plates are incubated for approximately 48 hrs at 37°C in a 5% C02 atmosphere. At this time test compounds are added in the appropriate concentration. Five µl of the 200 µg/ml stock solution is added to each well in a primary test. Ten pl of the appropriate dilution is added to each well for a titration test. The plates are reincubated an additional 60-65 hrs at 37°C in a 5% C02 atmosphere. The test is read by lysing the cells using a mix of cationic surfactant, glacial acetic acid and sodium chloride. […] of the lysed cell suspension from each well is added to 8 ml of diluent. Each sample is read with a Coulter counter (ZBI model). The activity of each sample is measured as a percentage of the controls and the data is reported as ID50, that is the molar quantity of drug required to kill 50% of the tumor cells.

The subject of assay [2] is Penicillium avellaneum. Put plainly: agar plate paper-disc inhibition zone screening. It counts as cell-based. Conditions: Hamigera avellanea, read-out: Inhibition Zone Diameter mm (Dose mg/ml) P. Avellaneum; for zone of inhibition at 3000 µg/mL: Dose 3.0 mg/ml; for zone of inhibition at 1000 µg/mL: Dose 1.0 mg/ml. In a few lines: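 Mycelia and spores from a six-day 28°C agar culture, suspended in saline with 0.05% Tween 80 at 20% transmittancy, were seeded into molten agar trays. Compounds at 3,000, 1,000, 500, 100 and 10 mcg/ml (solvent <10%) were applied on 12.7 mm paper discs. After at least 20-24 h incubation, inhibition zone diameter was measured in mm.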

The subject of assay [3] is Escherichia coli. Put plainly: agar plate paper-disc inhibition zone screening. To be noted: read-out: Inhibition Zone Diameter mm (Dose mg/ml) E. Coli; for zone of inhibition at 1000 µg/mL: Dose 1.0 mg/ml; for zone of inhibition at 3000 µg/mL: Dose 3.0 mg/ml. Type of assay: cell-based. In a few lines:
(§1)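 Inoculum: saline suspension, 20-35% transmittancy, in molten agar. Discs 12.7 mm, compound 3,000/1,000/500/100/10 mcg/ml, solvent <10%. 37°C, 18-20 h; zone diameter in mm.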

Assay [4] relates to Aerobacter aerogenes. Put plainly: agar plate paper-disc inhibition zone screening. Type of assay: cell-based. Conditions: Klebsiella aerogenes, read-out: Inhibition Zone Diameter mm (Dose mg/ml) A. Aerogenes; for zone of inhibition at 500 µg/mL: Dose 0.5 mg/ml; for zone of inhibition at 100 µg/mL: Dose 0.1 mg/ml. In outline: as §1
Assay [5] concerns Streptococcus faecalis. Put plainly: agar plate paper-disc inhibition zone screening. Conditions: Enterococcus faecalis, read-out: Inhibition Zone Diameter mm (Dose mg/ml) S. Faecalis; for zone of inhibition at 500 µg/mL: Dose 0.5 mg/ml; for zone of inhibition at 1000 µg/mL: Dose 1.0 mg/ml; for zone of inhibition at 3000 µg/mL: Dose 3.0 mg/ml. It counts as cell-based. In a few lines:
as §1

The subject of assay [6] is Bacillus subtilis. Put plainly: agar plate paper-disc inhibition zone screening. Type of assay: cell-based. To be noted: read-out: Inhibition Zone Diameter mm (Dose mg/ml) B. Subtilis; for zone of inhibition at 100 µg/mL: Dose 0.1 mg/ml; for zone of inhibition at 1000 µg/mL: Dose 1.0 mg/ml; for zone of inhibition at 3000 µg/mL: Dose 3.0 mg/ml. In a few lines:
as §1

In assay [7] the test system is lymphocytic leukemia P388. Put plainly: in vivo lymphocytic leukemia P388 test. Conditions: Mus musculus, P388, ip, 720 h, two single doses four days apart, read-out: T/C × 100 (Percent); for response vs control in vivo at 3.12 mg/kg: P388, Dose 3.12 mg/kg intraperitoneally; for response vs control in vivo at 12.5 mg/kg: P388, Dose 12.5 mg/kg intraperitoneally; for response vs control in vivo at 25 mg/kg: P388, Dose 25 mg/kg intraperitoneally; for response vs control in vivo at 50 mg/kg: P388, Dose 50 mg/kg intraperitoneally. Set-up: species or system mice. In a few lines: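 Efficacy was judged from the treated/control survival-time ratio over 30 days (T/C×100 >125% as criterion). Mice (CD2F, 6–7/group) received i.p. P388 ascites cells, then compound i.p. at varied doses twice, four days apart.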

Setting [8] is: HCT-8 human colon adenocarcinoma cells, 60-65 hrs incubation with compound, Coulter counter cell count as percentage of controls, read-out: ID50 (the source's name).
[9] abbreviates: Homo sapiens, HCT-8 cells, 60-65 hrs with compound, molar quantity of drug required to kill 50% of the tumor cells, read-out: ID50 Molar.

This note sets out measurements from EP0103381B1, “Substituted anthra(1,9-cd)pyrazol-6(2H)-ones” (WARNER-LAMBERT COMPANY, priority 1982, dated 1984).

Each structure is given as a SMILES string. Counter-ions that a name gives are not always drawn. Like-named read-outs stand apart in the source and are kept apart here.

Consider `CN(C)CCn1nc2c3c(c(NCCCN)ccc31)C(=O)c1c(O)ccc(O)c1-2` [7,10-(OH)2; (CH2)2NMe2·2HCl; NH(CH2)3NH2], for which, in assay [1] (setting [8]), the IC50 came to 1100 nM.

Turning to `CN(C)CCNc1ccc2c3c(nn2CCO)-c2c(O)ccc(O)c2C(=O)c13` [7,10-(OH)2; (CH2)2OH·HCl; NH(CH2)2NMe2], the IC50 in assay [1] (setting [8]) worked out at 170 nM.

As to `CN(C)CCCn1nc2c3c(c(NCCCN)ccc31)C(=O)c1c(O)ccc(O)c1-2` [7,10-(OH)2; (CH2)3NMe2·2HCl; NH(CH2)3NH2], the IC50 in assay [1] (setting [8]) turned out to be 350 nM.

Take `CCN(CC)CCNc1ccc2c3c(nn2CCN(CC)CC)-c2ccccc2C(=O)c13` [Example 1]: the zone of inhibition at 3000 µg/mL in assay [2] is 19 mm. In addition, in assay [1] (setting [9]), the IC50 is 140 nM. In assay [3], the zone of inhibition at 1000 µg/mL came to 15 mm. Besides, the zone of inhibition at 500 µg/mL in assay [4] is 19 mm; in assay [5], 14 mm. Moreover, the zone of inhibition at 100 µg/mL in assay [6] is 15 mm.

Turning to `CCN(CC)CCn1nc2c3c(c(NCCN)ccc31)C(=O)c1ccccc1-2` [Example 3, 5-[(2-Aminoethyl)amino]-2-[2-(diethylamino)ethyl]anthra[1,9-cd]pyrazol-6(2H)-one], the zone of inhibition at 3000 µg/mL in assay [2] is 16 mm. Also, in assay [1] (setting [9]), the IC50 is 52 nM. Moreover, in assay [3], the zone of inhibition at 1000 µg/mL is 14 mm. Also, the zone of inhibition at 500 µg/mL came out at 14 mm in assay [4] and 17 mm in assay [5]. The zone of inhibition at 100 µg/mL in assay [6] came out at 15 mm.

On to `CCN(CC)CCCNc1ccc2c3c(nn2CCN(CC)CC)-c2ccccc2C(=O)c13` [Example 5, 2-[2-(Diethylamino)ethyl]-5-[[3-(diethylamino)propyl]amino]anthra[1,9-cd]pyrazol-6(2H)-one], for which the zone of inhibition at 3000 µg/mL in assay [2] and in assay [3] was 15 mm each time. Moreover, the IC50 in assay [1] (setting [9]) was 180 nM. Moreover, the zone of inhibition at 100 µg/mL in assay [4] stood at 20 mm. In addition, the zone of inhibition at 1000 µg/mL was 14 mm in assay [5] and 25 mm in assay [6].

For `CCN(CC)CCCCCCCNc1ccc2c3c(nn2CCN(CC)CC)-c2ccccc2C(=O)c13` [Example 6], the zone of inhibition at 1000 µg/mL in assay [2] and in assay [3] was 14 mm throughout. Moreover, the IC50 in assay [1] (setting [9]) was 2200 nM. Further, the zone of inhibition at 3000 µg/mL came out at 0 mm in assay [4] (Dose 3.0 mg/ml) and 14 mm in assay [5]. The zone of inhibition at 500 µg/mL in assay [6] (Dose 0.5 mg/ml) came to 17 mm.

For the molecule `CCN(CC)CCCCNc1ccc2c3c(nn2CCN(CC)CC)-c2ccccc2C(=O)c13` [Example 7], the results for the zone of inhibition at 3000 µg/mL in assay [2] and in assay [3] were 14 mm and 15 mm, respectively. Moreover, the IC50 in assay [1] (setting [9]) amounted to 220 nM. For the same molecule, the zone of inhibition at 100 µg/mL in assay [4] was 16 mm. For the same molecule, the zone of inhibition at 1000 µg/mL in assay [5] turned out to be 14 mm; in assay [6] it was 17 mm.

Regarding `CCN(CC)CCn1nc2c3c(c(NCCN4CCNCC4)ccc31)C(=O)c1ccccc1-2` [Example 9, 2-(2-(Diethylamino)ethyl]-5-[[2-(1-piperazinyl)ethyl]amino]anthra[1,9-cd]pyrazol-6(2H)-one], the zone of inhibition at 1000 µg/mL in assay [2] is 0 mm; in assay [6], 24 mm. For the same molecule, the IC50 in assay [1] (setting [9]) stood at 380 nM. Besides, the zone of inhibition at 3000 µg/mL in assay [3] stood at 0 mm; in assay [5], 14 mm. Moreover, the zone of inhibition at 100 µg/mL in assay [4] was determined as 19 mm.

With `CCN(CC)CCNc1ccc2c3c(nn2C)-c2ccccc2C(=O)c13` [Example 10, 5-[[2-[Diethylamino)ethyl]amino]-2-methylanthra[1,9-cd]pyrazol-6(2H)-one], the zone of inhibition at 500 µg/mL in assay [2] (Dose 0.5 mg/ml) worked out at 16 mm; in assay [4], 17 mm. Moreover, the IC50 in assay [1] (setting [9]) came to 410 nM. For the same molecule, in assay [3], the zone of inhibition at 3000 µg/mL worked out at 15 mm. In assay [5], the zone of inhibition at 1000 µg/mL is 16 mm. The zone of inhibition at 100 µg/mL in assay [6] was 15 mm.

As to `Cn1nc2c3c(c(NCCNCCO)ccc31)C(=O)c1c(O)ccc(O)c1-2` [Example 41, 7,10-Dihydroxy-5-[[2-[(2-hydroxyethyl)amino]ethyl]amino]-2-methylanthra[1,9-cd]pyrazol-6(2H)-one], in assay [1] (setting [9]), the IC50 was found to be 790 nM. In assay [7], the response vs control in vivo at 3.12 mg/kg was 138%, the response vs control in vivo at 12.5 mg/kg was 140%, the response vs control in vivo at 25 mg/kg came to 150% and the response vs control in vivo at 50 mg/kg was determined as 162%. Moreover, in assay [7] (P388, Dose 100 mg/kg intraperitoneally), the response vs control in vivo at 100 mg/kg stood at 174%.

Regarding `NCCn1nc2c3c(c(NCCNCCO)ccc31)C(=O)c1c(O)ccc(O)c1-2` [Example 71, 2-(2-Aminoethyl)-7,10-dihydroxy-5-[[2-[(2-hydroxyethyl)amino]ethyl]amino]anthra[1,9-cd]pyrazol-6(2H)-one], the IC50 in assay [1] (setting [8]) stood at 1700 nM. The response vs control in vivo at 1.56 mg/kg in assay [7] (P388, Dose 1.56 mg/kg intraperitoneally) worked out at 153%. For the same molecule, in assay [7], the response vs control in vivo at 3.12 mg/kg came out at 160%, the response vs control in vivo at 12.5 mg/kg came to 182% and the response vs control in vivo at 25 mg/kg was 257%. Besides, in assay [7] (P388, Dose 6.25 mg/kg intraperitoneally), the response vs control in vivo at 6.25 mg/kg is 163%.

`CN(C)CCNCCNc1ccc2c3c(nn2CCN)-c2c(O)ccc(O)c2C(=O)c13` [Example 74, 2-[2-Aminoethyl)-5-[[2-[[2-(dimethylamino)ethyl]amino]ethyl]amino]-7,10-dihydroxyanthra[1,9-cd]pyrazol-6(2H)-one]: the zone of inhibition at 3000 µg/mL in assay [2] was 0 mm; in assay [5] it was 0 mm; in assay [6] it was 16 mm. Besides, the IC50 in assay [1] (setting [8]) came to 1200 nM. Besides, the response vs control in vivo at 12.5 mg/kg in assay [7] amounted to 186%. The response vs control in vivo at 25 mg/kg in assay [7] was determined as 192%. The response vs control in vivo at 50 mg/kg in assay [7] was 220%.

Regarding `NCCCn1nc2c3c(c(NCCNCCO)ccc31)C(=O)c1c(O)ccc(O)c1-2` [Example 90, 2-(3-Aminopropyl)-7,10-dihydroxy-5-[[2-[(2-hydroxyethyl)amino]ethyl]amino]anthra[1,9-cd]pyrazol-6(2H)-one], the figures for the zone of inhibition at 3000 µg/mL in assay [2], in assay [5] and in assay [6] were 0 mm, 0 mm and 16 mm, respectively. The IC50 in assay [1] (setting [8]) was 770 nM. In assay [7], the response vs control in vivo at 25 mg/kg was found to be 285%. Moreover, in assay [7], the response vs control in vivo at 50 mg/kg came to 285%.

On to `CNCCn1nc2c3c(c(NCCNCCO)ccc31)C(=O)c1c(O)ccc(O)c1-2` [Example 93, 7,10-Dihydroxy-5-[[2-[(2-hydroxyethyl)amino]ethyl]amino]-2-[2-(methylamino)ethyl]anthra[1,9-cd]pyrazol-6(2H)-one], for which the IC50 in assay [1] (setting [8]) was determined as 230 nM. In assay [7], the response vs control in vivo at 12.5 mg/kg came to 147%.
